The results in this text go back to patent US10689622B2, “Culture medium for proliferating stem cell, which contains sulfated compound” (AJINOMOTO CO., INC., priority 2012, dated 2020).

The target of experiment [1] is T1, bFGF (Homo sapiens, UniProt P09038).
T1 construct: purchased Lonza (via TAKARA BIO INC.) Ser. No. 00/190,632
Description: Evaluation of bFGF stabilization in Lonza serum-free medium (ELISA). Format: biochemical. The following applies: Lonza serum-free medium, 37° C. for 7 days. As to the method:
A test compound was dissolved in phosphate buffered saline, and diluted 10-fold with a serum-free medium to adjust to the concentrations shown in Table 4 (test sample). The test sample was left standing in a tightly sealed Falcon tube at 37° C. for 7 days (Tables 5 to 8-2) or 3 days (Table 8-3), and the bFGF concentration was quantified by ELISA measurement. A phosphate buffered saline without a test compound was diluted 10-fold with a serum-free medium, and left standing at 37° C. or 4° C. for 7 days or 3 days, and used as a control.
(§1) A commercially available measurement kit (human bFGF ELISA kit, ELH-bFGF-001, Ray Biotech) was used for quantification of bFGF in the medium. The measurement procedures followed the protocol attached to the kit. The bFGF concentration of the serum-free medium was calculated from the analytical curve (conversion formula) drawn from the absorbance of an analytical curve standard solution. The evaluation criteria of Tables 5-8 are as follows:
A test compound was dissolved in phosphate buffered saline, and diluted 10-fold with a serum-free medium to adjust to the concentrations shown in Table 13 (test sample). The test sample was left standing in a tightly sealed Falcon tube at 37° C. for 7 days, and the bFGF concentration was quantified by ELISA measurement. A phosphate buffered saline without a test compound was diluted 10-fold with a serum-free medium, and left standing at 37° C. or 4° C. for 7 days, and used as a control.
A commercially available measurement kit (human bFGF ELISA kit, ELH-bFGF-001, Ray Biotech) was used for quantification of bFGF in the medium. The measurement procedures followed the protocol attached to the kit. The bFGF concentration of the serum-free medium was calculated from the analytical curve (conversion formula) drawn from the absorbance of an analytical curve standard solution. The evaluation criteria of Table 13 are as follows: […]

Experiment [2] concerns the target T1, bFGF. Briefly: Evaluation of bFGF stabilization in Essential 8 medium (ELISA). Format: biochemical. To be noted: 37° C. for 7 days. As to the method:
as §1
A test compound was dissolved in phosphate buffered saline, and diluted 10-fold with a serum-free medium to adjust the concentration shown in Table 4 (test sample). The test sample was left standing in a tightly sealed Falcon tube at 37° C. for 7 days, and the bFGF concentration was quantified by ELISA measurement. A phosphate buffered saline without a test compound was diluted 10-fold with Essential 8 medium or ReproFF2 medium, and left standing at 37° C. or 4° C. for 7 days, and used as a control.
A commercially available measurement kit (human bFGF ELISA kit, ELH-bFGF-001, Ray Biotech) was used for quantification of bFGF in the medium. The measurement procedures followed the protocol attached to the kit. The bFGF concentration of the serum-free medium was calculated from the analytical curve (conversion formula) drawn from the absorbance of an analytical curve standard solution. The evaluation criteria of Table 13 are as follows:
A test compound was dissolved in phosphate buffered saline, and diluted 10-fold with a serum-free medium to adjust the concentration shown in Table 12 (test sample). The test sample was left standing in a tightly sealed Falcon tube at 37° C. for 7 days, and the bFGF concentration was quantified by ELISA measurement. A phosphate buffered saline without a test compound was diluted 10-fold with Essential 8 medium or ReproFF2 medium, and left standing at 37° C. or 4° C. for 7 days, and used as a control.

Experiment [3] concerns Human bone marrow-derived mesenchymal stem cells. Description: Mesenchymal stem cell proliferation system (cell number by DNA quantification). To be noted: mesenchymal stem cells.
Description: Human bone marrow-derived mesenchymal stem cells (Lonza, Human Mesenchymal Stem Cell) cultured in mesenchymal stem cell-dedicated medium (Lonza, MSCGM) or Dulbecco's Modified Eagle Medium (Invitrogen, GIBCO D-MEM) containing inactivated fetal bovine serum (Invitrogen, GIBCO FBS) and penicillin-streptomycin (Sigma-Aldrich Co. LLC.) were cultured in exchanged Lonza serum-free medium. The mesenchymal stem cells thus-acclimated to serum-free culture were suspended in Lonza serum-free medium, and seeded on a 24 well culture plate (Nippon Becton Dickinson Company, Ltd., Falcon culture plate) at 20,000 cells/well or a 6 well culture plate (Nippon Becton Dickinson Company, Ltd., Falcon culture plate) at 50,000 cells/well. Then, a test compound solution after filter sterilization and adjustment to a given concentration was added, and the cells were cultured in an incubator (Thermo Scientific, Forma incubator) under the 5% CO2/37° C. conditions for 7 to 8 days. When the medium exchange was necessary, the medium was exchanged 2 to 3 days after the seeding. In this case, the test compound solution was also added again in the same manner as in seeding. In this case, various compound solutions were added again in the same manner as in seeding. After culturing for 7 to 8 days, the medium was removed and DNA quantification was performed. As a control, the cells were cultured in the same manner in a medium without a test compound and added with phosphate buffered saline.
The medium in the 24 well culture plate was removed, and the cells were washed with phosphate buffered saline. The sodium lauryl sulfate solution (500 μl/well) was added, and the mixture was left standing at 37° C. for 4 hours. The sodium lauryl sulfate solution (1.0 ml) was also added to a cell pellet with a known cell number, and the mixture was left standing at 37° C. for 4 hours. As for the cells in the 24 well culture plate, a part (50 μl) of the lysate was transferred to a 96 well black microplate. The solution used for treating the cell pellets was successively diluted with sodium lauryl sulfate solution and used as solutions for drawing an analytical curve. Also, a part (50 μl) of the solutions for drawing an analytical curve was each transferred to the 96 well black microplate. […] The fluorescence was measured by a microplate reader (excitation wavelength: 355 nm, measurement wavelength: 460 nm) within 5 minutes from the addition. The cell number of the 24 well cell culture plate was calculated from the analytical curve drawn (conversion formula). The evaluation criteria were as follows.

T1 sequence (P09038 143-288): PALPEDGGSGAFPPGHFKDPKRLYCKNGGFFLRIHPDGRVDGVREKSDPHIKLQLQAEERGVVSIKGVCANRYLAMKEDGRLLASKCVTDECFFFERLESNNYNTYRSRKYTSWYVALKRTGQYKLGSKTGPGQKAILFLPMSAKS

With `OC[C@@H](O)[C@@H](O[C@H]1O[C@H](CO)[C@@H](O)[C@H](O)[C@H]1O)[C@H](O)[C@@H](O)CO` [maltitol, reference compound], the “bFGF concentration relative to that of 4° C. control (ELISA)” value (shortened to “bFGF concentration relative to that”) at bFGF [1] (test compound 25 ng/ml), at bFGF [1] (test compound 250 ng/ml), on bFGF [1] (test compound 25 μg/ml) and on bFGF [1] (test compound 250 μg/ml) was “x (bFGF concentration was less than 10% relative to that of 4 °C control)” each time.
In the case of `OC[C@H]1O[C@H](O[C@H]2[C@H](O)[C@@H](O)[C@@H](O[C@H]3[C@H](O)[C@@H](O)C(O)O[C@@H]3CO)O[C@@H]2CO)[C@H](O)[C@@H](O)[C@@H]1O` (stereo partly shown) [maltotriose, reference compound], the “bFGF concentration relative to that” value on bFGF [2] (test compound 250 pg/ml), at bFGF [2] (test compound 25 ng/ml), at bFGF [2] (test compound 250 ng/ml), on bFGF [2] (test compound 25 μg/ml), at bFGF [2] (test compound 250 μg/ml) and on bFGF [1] (test compound 25 ng/ml) was “x (bFGF concentration was less than 10% relative to that of 4 °C control)” in each case. Further, the “bFGF concentration relative to that” value on bFGF [1] (test compound 250 ng/ml), at bFGF [1] (test compound 25 μg/ml) and on bFGF [1] (test compound 250 μg/ml) was “x (bFGF concentration was less than 10% relative to that of 4 °C control)” throughout.
As to `OC[C@@H](O)[C@@H](O)[C@H](O)[C@H](O)CO` [mannitol, reference compound], the “bFGF concentration relative to that” value at bFGF [1] (test compound 25 ng/ml), on bFGF [1] (test compound 250 ng/ml), on bFGF [1] (test compound 25 μg/ml) and at bFGF [1] (test compound 250 μg/ml) was “x (bFGF concentration was less than 10% relative to that of 4 °C control)” in each case.
Regarding `NC(COS(=O)(=O)[O-])C(=O)O.[Na+]` (stereo not shown) [serine SO3Na], the “concentration showing a suppressive effect on a decrease in the bFGF concentration of the medium” value on bFGF [1] is listed as “not less than 25 μg/ml”. For the same compound, the “bFGF concentration relative to that” value at bFGF [1] (test compound 250 pg/ml) is “x (bFGF concentration was less than 10% relative to that of 4 °C control)”; on bFGF [1] (test compound 25 ng/ml) it was “x (bFGF concentration was less than 10% relative to that of 4 °C control)”; on bFGF [1] (test compound 250 ng/ml), “x (bFGF concentration was less than 10% relative to that of 4 °C control)”; at bFGF [1] (test compound 25 μg/ml), “− (bFGF concentration was not less than 10% and less than 30% relative to that of 4 °C control)”; at bFGF [1] (test compound 250 μg/ml), “+++ (bFGF concentration was not less than 70% relative to that of 4 °C control)”. In addition, the “number of cells relative to control” value in experiment [3] (test compound 25 pg/ml), in experiment [3] (test compound 250 pg/ml), in experiment [3] (test compound 25 ng/ml) and in experiment [3] (test compound 250 ng/ml) was “— (100-50)” throughout.
On to `N[C@@H](CO)C(=O)O` [serine, reference compound], for which the “bFGF concentration relative to that” value on bFGF [1] (test compound 250 pg/ml), at bFGF [1] (test compound 25 ng/ml), at bFGF [1] (test compound 250 ng/ml), on bFGF [1] (test compound 25 μg/ml) and on bFGF [1] (test compound 250 μg/ml) was “x (bFGF concentration was less than 10% relative to that of 4 °C control)” throughout.
As to `OC[C@H]1O[C@@](CO)(O[C@H]2O[C@H](CO)[C@@H](O)[C@H](O)[C@H]2O)[C@@H](O)[C@@H]1O` [sucrose, reference compound], the “bFGF concentration relative to that” value at bFGF [1] (test compound 25 ng/ml), on bFGF [1] (test compound 250 ng/ml) and on bFGF [1] (test compound 25 μg/ml) was “x (bFGF concentration was less than 10% relative to that of 4 °C control)” each time.
`OC[C@@H](O)[C@H](O)[C@@H](O)CO` [xylitol, reference compound]: the “bFGF concentration relative to that” value on bFGF [1] (test compound 25 ng/ml), at bFGF [1] (test compound 250 ng/ml), at bFGF [1] (test compound 25 μg/ml) and at bFGF [1] (test compound 250 μg/ml) was “x (bFGF concentration was less than 10% relative to that of 4 °C control)” throughout.
As for `OC[C@H]1O[C@@H]2O[C@H]3[C@H](O)[C@@H](O)[C@@H](O[C@H]4[C@H](O)[C@@H](O)[C@@H](O[C@H]5[C@H](O)[C@@H](O)[C@@H](O[C@H]6[C@H](O)[C@@H](O)[C@@H](O[C@H]7[C@H](O)[C@@H](O)[C@@H](O[C@H]1[C@H](O)[C@H]2O)O[C@@H]7CO)O[C@@H]6CO)O[C@@H]5CO)O[C@@H]4CO)O[C@@H]3CO` [α-CD, α-cyclodextrin, reference compound], the “bFGF concentration relative to that” value on bFGF [1] (test compound 250 μg/ml) is “x (bFGF concentration was less than 10% relative to that of 4 °C control)”.
